Data as given in the NIST ThermoML archive (doi:10.1016/j.fluid.2016.05.004).
Numbers after ± are expanded uncertainties.

Conditions: Liquid, Closed cell (Static) method

Compound | vapor or sublimation pressure (233.17 K) [kPa] | vapor or sublimation pressure (243.23 K) [kPa] | vapor or sublimation pressure (253.14 K) [kPa] | vapor or sublimation pressure (263.2 K) [kPa] | vapor or sublimation pressure (273.19 K) [kPa] | vapor or sublimation pressure (243.24 K) [kPa] | vapor or sublimation pressure (253.22 K) [kPa] | vapor or sublimation pressure (263.24 K) [kPa] | vapor or sublimation pressure (273.18 K) [kPa] | vapor or sublimation pressure (233.19 K) [kPa] | vapor or sublimation pressure (243.22 K) [kPa] | vapor or sublimation pressure (253.21 K) [kPa] | vapor or sublimation pressure (263.21 K) [kPa]
FC(F)=C(F)C(F)(F)F [hexafluoropropene] | 64 ± 10 | 102 ± 10 | 157 ± 10 | 233 ± 10 | 334 ± 10 | – | – | – | – | – | – | – | –
FC(F)(F)C1(F)OC1(F)F (stereo not given) [2,2,3-trifluoro-3-(trifluoromethyl)oxirane] | 58 ± 10 | – | – | – | – | 95 ± 10 | 145 ± 10 | 216 ± 10 | 310 ± 10 | – | – | – | –
O=C=O [carbon dioxide] | – | – | – | – | 3473 ± 16 | – | – | – | – | 1009 ± 12 | 1432 ± 12 | 1970 ± 13 | 2645 ± 15
